Source: ChEMBL document CHEMBL4304820, “Design, synthesis and biological evaluation of novel serotonin and dopamine receptor ligands being 6-bromohexyl saccharine derivatives” (Bioorg Med Chem Lett, 2019)

Legend:
[1] = molecular target: T1, 5-hydroxytryptamine receptor 1A (Homo sapiens, UniProt P08908); experiment: Displacement of [3H]-8-OH-DPAT from full length human cloned 5HT1A receptor expressed in HEK293 cells incubated for 1 hr by radioligand displacement assay; assay type: cell-based
T1 sequence (P08908 whole entry): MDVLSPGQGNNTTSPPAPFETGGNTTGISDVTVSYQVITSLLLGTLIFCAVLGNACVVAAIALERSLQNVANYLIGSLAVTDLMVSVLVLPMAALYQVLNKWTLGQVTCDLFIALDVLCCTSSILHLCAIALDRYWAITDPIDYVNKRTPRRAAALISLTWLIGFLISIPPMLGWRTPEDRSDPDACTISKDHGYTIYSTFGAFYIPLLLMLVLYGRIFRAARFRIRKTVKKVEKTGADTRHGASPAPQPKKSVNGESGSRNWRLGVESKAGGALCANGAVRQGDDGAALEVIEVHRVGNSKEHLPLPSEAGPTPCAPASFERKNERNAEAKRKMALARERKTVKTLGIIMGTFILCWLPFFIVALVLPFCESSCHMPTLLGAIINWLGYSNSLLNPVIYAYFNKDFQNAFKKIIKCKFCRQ

D(2) dopamine receptor [2] = molecular target: T2, D(2) dopamine receptor (Homo sapiens, UniProt P14416); experiment: Displacement of [3H]raclopride from full length human cloned D2L receptor expressed in HEK293 cells incubated for 1 hr by radioligand displacement assay; assay type: cell-based
T2 sequence (P14416 whole entry): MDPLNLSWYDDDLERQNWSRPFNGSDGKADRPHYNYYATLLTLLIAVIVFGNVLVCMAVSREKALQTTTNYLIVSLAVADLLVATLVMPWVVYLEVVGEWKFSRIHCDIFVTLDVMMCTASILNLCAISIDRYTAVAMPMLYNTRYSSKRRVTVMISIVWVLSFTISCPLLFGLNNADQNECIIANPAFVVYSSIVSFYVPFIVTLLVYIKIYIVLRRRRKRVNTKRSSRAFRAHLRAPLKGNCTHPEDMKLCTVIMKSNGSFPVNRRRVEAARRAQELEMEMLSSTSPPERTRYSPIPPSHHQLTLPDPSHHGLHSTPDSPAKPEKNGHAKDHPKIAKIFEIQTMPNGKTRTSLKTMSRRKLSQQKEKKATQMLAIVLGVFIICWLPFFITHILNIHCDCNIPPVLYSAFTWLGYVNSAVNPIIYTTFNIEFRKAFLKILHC

D(2) dopamine receptor [3] = molecular target: T2, D(2) dopamine receptor; experiment: Displacement of [3H]raclopride from human cloned D2 receptor expressed in HEK293 cells by radioligand binding assay; assay type: cell-based
[4] = molecular target: T3, 5-hydroxytryptamine receptor 1A (Rattus norvegicus, UniProt P19327); experiment: Displacement of [3H]-8-OH-DPAT from 5HT1A receptor in Wistar rat brain cerebral cortex incubated for 30 mins by liquid scintillation spectrometry; assay type: tissue-based
T3 sequence (P19327 whole entry): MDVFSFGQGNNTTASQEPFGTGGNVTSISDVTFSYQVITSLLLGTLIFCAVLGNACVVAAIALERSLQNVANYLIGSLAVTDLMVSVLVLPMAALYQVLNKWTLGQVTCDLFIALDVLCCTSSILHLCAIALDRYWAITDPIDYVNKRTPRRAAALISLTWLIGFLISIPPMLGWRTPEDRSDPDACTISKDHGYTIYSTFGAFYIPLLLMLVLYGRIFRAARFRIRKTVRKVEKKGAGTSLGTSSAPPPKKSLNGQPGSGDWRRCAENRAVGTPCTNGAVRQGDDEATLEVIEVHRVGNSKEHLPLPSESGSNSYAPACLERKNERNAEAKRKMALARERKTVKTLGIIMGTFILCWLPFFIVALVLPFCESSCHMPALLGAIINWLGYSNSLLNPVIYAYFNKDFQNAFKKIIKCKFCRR

[5] = molecular target: 5-hydroxytryptamine receptor 2A (Rattus norvegicus, UniProt P14842); experiment: Displacement of [3H]ketanserin from 5-HT2A receptor in Wistar rat brain frontal cortex incubated for 30 mins by radioligand binding assay; assay type: tissue-based
Sequence of 5-hydroxytryptamine receptor 2A (Rattus norvegicus, UniProt P14842) (P14842 whole entry): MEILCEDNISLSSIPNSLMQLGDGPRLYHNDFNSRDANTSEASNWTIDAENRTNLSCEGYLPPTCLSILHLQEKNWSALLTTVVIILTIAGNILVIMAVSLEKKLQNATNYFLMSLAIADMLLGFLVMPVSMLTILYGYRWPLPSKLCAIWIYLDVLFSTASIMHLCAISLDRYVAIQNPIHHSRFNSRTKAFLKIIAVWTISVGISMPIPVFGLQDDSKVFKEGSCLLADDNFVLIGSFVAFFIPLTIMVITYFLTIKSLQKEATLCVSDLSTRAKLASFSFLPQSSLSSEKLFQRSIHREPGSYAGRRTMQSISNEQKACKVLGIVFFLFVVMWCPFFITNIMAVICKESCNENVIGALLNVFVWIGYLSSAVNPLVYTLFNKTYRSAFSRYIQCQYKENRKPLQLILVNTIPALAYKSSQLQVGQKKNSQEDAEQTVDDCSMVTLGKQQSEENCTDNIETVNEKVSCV

[6] = molecular target: 5-hydroxytryptamine receptor 2A (Homo sapiens, UniProt P28223); experiment: Displacement of [3H]ketanserin from full length human cloned 5HT2A receptor expressed in CHO-K1 cells incubated for 1 hr by radioligand displacement assay; assay type: cell-based
Sequence of 5-hydroxytryptamine receptor 2A (Homo sapiens, UniProt P28223) (P28223 whole entry): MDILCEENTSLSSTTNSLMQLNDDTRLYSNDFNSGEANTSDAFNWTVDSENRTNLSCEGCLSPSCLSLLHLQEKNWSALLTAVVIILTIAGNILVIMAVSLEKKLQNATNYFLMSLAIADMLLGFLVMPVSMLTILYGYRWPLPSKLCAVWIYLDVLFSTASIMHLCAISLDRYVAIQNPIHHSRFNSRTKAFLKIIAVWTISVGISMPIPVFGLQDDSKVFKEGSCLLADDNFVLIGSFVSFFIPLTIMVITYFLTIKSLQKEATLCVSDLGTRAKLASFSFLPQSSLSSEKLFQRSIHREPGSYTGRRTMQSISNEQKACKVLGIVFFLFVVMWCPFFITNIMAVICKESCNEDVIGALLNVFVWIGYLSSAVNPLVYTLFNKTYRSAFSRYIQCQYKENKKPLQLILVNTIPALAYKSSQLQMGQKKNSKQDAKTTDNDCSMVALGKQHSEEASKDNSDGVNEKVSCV

[7] = molecular target: 5-hydroxytryptamine receptor 6 (Homo sapiens, UniProt P50406); experiment: Displacement of [3H]LSD from full length human cloned 5HT6R expressed in HEK293 cells incubated for 1 hr by radioligand displacement assay; assay type: cell-based
Sequence of 5-hydroxytryptamine receptor 6 (P50406 whole entry): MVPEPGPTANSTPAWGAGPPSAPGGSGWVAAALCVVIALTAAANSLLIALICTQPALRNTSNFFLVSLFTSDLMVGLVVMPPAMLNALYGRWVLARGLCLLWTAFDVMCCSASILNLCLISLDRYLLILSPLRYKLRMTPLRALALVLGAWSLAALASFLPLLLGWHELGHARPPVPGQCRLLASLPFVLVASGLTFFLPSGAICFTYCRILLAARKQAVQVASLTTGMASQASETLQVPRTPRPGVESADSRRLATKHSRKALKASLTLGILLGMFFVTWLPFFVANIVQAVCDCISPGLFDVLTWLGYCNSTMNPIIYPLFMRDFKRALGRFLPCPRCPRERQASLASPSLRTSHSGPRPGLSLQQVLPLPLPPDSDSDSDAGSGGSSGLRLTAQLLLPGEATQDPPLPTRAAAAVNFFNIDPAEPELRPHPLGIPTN

[8] = molecular target: 5-hydroxytryptamine receptor 7 (Homo sapiens, UniProt P34969); experiment: Displacement of [3H]5-CT from full length human cloned 5-HT7bR expressed in HEK293 cells incubated for 1 hr by radioligand displacement assay; assay type: cell-based
Sequence of 5-hydroxytryptamine receptor 7 (P34969 whole entry): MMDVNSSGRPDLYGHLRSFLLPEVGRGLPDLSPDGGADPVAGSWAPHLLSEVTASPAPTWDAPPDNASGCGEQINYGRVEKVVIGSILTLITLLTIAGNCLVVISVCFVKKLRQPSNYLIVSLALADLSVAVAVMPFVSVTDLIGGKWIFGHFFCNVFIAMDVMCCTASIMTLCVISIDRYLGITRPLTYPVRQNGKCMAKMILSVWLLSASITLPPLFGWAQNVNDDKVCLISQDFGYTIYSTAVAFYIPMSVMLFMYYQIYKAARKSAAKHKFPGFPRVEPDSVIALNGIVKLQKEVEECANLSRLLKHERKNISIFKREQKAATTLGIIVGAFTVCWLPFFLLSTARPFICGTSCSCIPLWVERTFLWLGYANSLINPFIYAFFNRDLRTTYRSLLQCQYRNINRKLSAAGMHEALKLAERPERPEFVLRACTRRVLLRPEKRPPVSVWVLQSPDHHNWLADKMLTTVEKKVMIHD

D(2) dopamine receptor [9] = molecular target: T2, D(2) dopamine receptor; experiment: Antagonist activity at human D2 receptor expressed in HEK293 cells assessed as cAMP accumulation incubated for 30 mins in presence of forskolin/dopamine by TR-FRET assay; assay type: functional, cell-based
[10] = molecular target: T4, 5-hydroxytryptamine receptor 1A (Homo sapiens) (UniProt P08908); experiment: Antagonist activity at human 5 HT1A receptor expressed in HEK293 cells assessed as cAMP accumulation incubated for 30 mins in presence of forskolin/8-OH-DPAT by TR-FRET assay; assay type: functional, cell-based
T4 sequence (whole entry): T1 sequence (P08908 whole entry)

[11] = molecular target: T3, 5-hydroxytryptamine receptor 1A; experiment: Displacement of [3H]-8-OH-DPAT from 5HT1A receptor in rat brain hippocampus incubated for 60 mins by radioligand binding assay
D(2) dopamine receptor [12] = molecular target: D(2) dopamine receptor (Rattus norvegicus, UniProt P61169); experiment: Displacement of [3H]raclopride from D2 receptor in rat brain striatum incubated for 60 mins by radioligand binding assay; assay type: tissue-based
Sequence of D(2) dopamine receptor (Rattus norvegicus, UniProt P61169) (P61169 whole entry): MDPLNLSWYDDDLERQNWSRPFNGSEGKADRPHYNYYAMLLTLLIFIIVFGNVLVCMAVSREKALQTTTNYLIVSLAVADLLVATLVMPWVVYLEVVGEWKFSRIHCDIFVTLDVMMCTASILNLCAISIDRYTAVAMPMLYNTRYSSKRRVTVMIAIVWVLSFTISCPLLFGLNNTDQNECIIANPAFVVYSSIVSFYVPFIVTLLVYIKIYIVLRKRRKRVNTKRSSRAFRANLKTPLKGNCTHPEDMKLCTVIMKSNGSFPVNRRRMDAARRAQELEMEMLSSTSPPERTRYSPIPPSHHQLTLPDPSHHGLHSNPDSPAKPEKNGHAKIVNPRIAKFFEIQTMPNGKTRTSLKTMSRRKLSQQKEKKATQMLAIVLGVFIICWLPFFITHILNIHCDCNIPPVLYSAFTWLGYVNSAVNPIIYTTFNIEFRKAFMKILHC

[13] = molecular target: T1, 5-hydroxytryptamine receptor 1A; experiment: Agonist activity at human 5 HT1A receptor expressed in HEK293 cells assessed as inhibition of forskolin-stimulated cAMP accumulation incubated for 30 mins by TR-FRET assay; assay type: functional, cell-based

Row | Structure (SMILES) | Ki [1] [nM] | Ki (D(2) dopamine receptor [2]) [nM] | Ki [6] [nM] | Ki [7] [nM] | Ki [8] [nM] | further results
1 | O=C1c2ccccc2S(=O)(=O)N1CCCCCCN1CCN(c2ccc(Cl)cc2)CC1 | 84 | 28 |  |  |  | 
2 | O=C1c2ccccc2S(=O)(=O)N1CCCCN1CCN(c2ncccn2)CC1 [IPSAPIRONE] |  |  |  |  |  | Ki (D(2) dopamine receptor [3]): 1220 nM
3 | O=C1c2ccccc2S(=O)(=O)N1CCCCN1CCN(c2cccc(C(F)(F)F)c2)CC1 |  |  |  |  |  | Ki [4]: 100 nM; Ki [5]: 2250 nM
4 | O=C1c2ccccc2S(=O)(=O)N1CCCCCCN1CCN(c2cccc(Cl)c2Cl)CC1 | 58 | 132 | 209 | 920 | 119 | 
5 | O=C1c2ccccc2S(=O)(=O)N1CCCCCCN1CCN(c2cccc(Cl)c2)CC1 | 21 | 39 | 361 | 372 | 233 | 
6 | O=C1c2ccccc2S(=O)(=O)N1CCCCCCN1CCN(c2cccc3cccnc23)CC1 | 4 | 15 | 205 | 1720 | 21 | Kb (D(2) dopamine receptor [9]): 10 nM; Kb [10]: 7 nM
7 | O=C1c2ccccc2S(=O)(=O)N1CCCCCCN1CCN(c2cccc3ccccc23)CC1 | 9 | 8 | 91 | 157 | 20 | Kb (D(2) dopamine receptor [9]): 14 nM; Kb [10]: 14 nM
8 | COc1cccc(N2CCN(CCCCCCN3C(=O)c4ccccc4S3(=O)=O)CC2)c1 | 19 | 113 | 342 | 921 | 305 | 
9 | COc1ccc(N2CCN(CCCCCCN3C(=O)c4ccccc4S3(=O)=O)CC2)cc1 | 327 | 950 |  |  |  | 
10 | O=c1ccc2ccc(OCCCCN3CCN(c4cccc5sccc45)CC3)cc2[nH]1 [BREXPIPRAZOLE] |  |  |  |  |  | Ki [11]: 0.09 nM; Ki (D(2) dopamine receptor [12]): 3.8 nM
11 | O=C1c2ccccc2S(=O)(=O)N1CCCCCCN1CCN(c2ccccn2)CC1 | 13 | 239 | 1290 | 2350 | 552 | 
12 | O=C1c2ccccc2S(=O)(=O)N1CCCCCCN1CCN(c2ncccn2)CC1 | 24 | 51 | 183 | 104 | 35 | 

Now from value to molecule, other results behind:

Row | Ki [1] [nM] | Ki (D(2) dopamine receptor [2]) [nM] | Ki [6] [nM] | Ki [7] [nM] | Ki [8] [nM] | Structure (SMILES) | further results
13 | 91 | 61 |  |  |  | COc1ccccc1N1CCN(CCCCCCN2C(=O)c3ccccc3S2(=O)=O)CC1 | 
14 | 156 | 27 | 922 | 1270 | 195 | O=C1c2ccccc2S(=O)(=O)N1CCCCCCN1CCN(c2ccccc2C(F)(F)F)CC1 | 
15 | 26 | 45 | 266 | 459 | 120 | O=C1c2ccccc2S(=O)(=O)N1CCCCCCN1CCN(c2ccccc2Cl)CC1 | 
16 | 12 | 24 | 307 | 1620 | 322 | O=C1c2ccccc2S(=O)(=O)N1CCCCCCN1CCN(c2ccccc2F)CC1 | 
17 | 54 | 105 | 283 | 132 | 258 | O=C1c2ccccc2S(=O)(=O)N1CCCCCCN1CCN(c2ccc(Cl)c(Cl)c2)CC1 | 
18 | 20 | 48 | 321 | 971 | 192 | O=C1c2ccccc2S(=O)(=O)N1CCCCCCN1CCN(c2ccccc2)CC1 | 
19 | 25 | 7 | 167 | 52 | 58 | O=C1c2ccccc2S(=O)(=O)N1CCCCCCN1CCN(c2cccc(C(F)(F)F)c2)CC1 | Kb (D(2) dopamine receptor [9]): 319 nM; EC50 [13]: 56 nM
20 | 23 | 9 | 23 | 58 | 45 | O=C1c2ccccc2S(=O)(=O)N1CCCCCCN1CCN(c2nsc3ccccc23)CC1 | 
